Data taken from article PMC8321398, “The discovery of a novel series of compounds with single-dose efficacy against juvenile and adult Schistosoma species” (PLoS Neglected Tropical Diseases, 2021).
Converted amounts (≈) assume the structure as drawn. “And” between values parts separate entries of the source, which are not always exact repeats. Equal entries are not always repeated. Where two headings read alike, the source gives them in different places.

Columns and labels:
HepG2 cells = experiment: Cytotoxicity, HepG2 cells with MTT; assay type: cell-based, human; conditions: Table 2; hepG2 cell line, 72 h incubation
Protocol: Activity against mammalian cells was determined using either of two standard assays. The first of these used MRC-5 cells with Alamar blue staining as previously described. The second used HepG2 cells monitored using 3-(4,5-dimethylthiazol-2-yl)-2,5-diphenyltetrazolium bromide (MTT) as previously described.

[1] = Metabolic stability in mouse hepatocytes; assay type: in vitro ADME; conditions: hepatocytes (suspension); for remaining at 1.5 h, 1 µM: pH 7.4, 90 min incubation, read-out: Mouse hepatocyte % remaining at 90 min; for remaining at 0.5 h, 1 µM: pH 7.4, 30 min incubation, read-out: Mouse hepatocyte % remaining at 30 min
Protocol: 100 μM compound stock solution was prepared from 5 μL of 4 mM stock in DMSO + 195 μL MeCN. Working solution (2 μM compound) was prepared using 10 μL of 100 μM stock + 490 μL buffer pH 7.4 (KHB supplemented with CaCl2, NaHCO3, HEPES, fructose, glycine; pH 7.4).
Working solution (25 μL, 2 μM) was added in duplicate to wells in a 0.5 mL per well, 96 well plate which was preincubated to reach 37°C. Hepatocyte suspension (25 μL) was added to each plate, and the plate incubated (37°C, 95% relative humidity with 5% CO2 supply) under gentle mixing (Thermomixer @300 rpm). After designated time periods, ice-cold MeCN (250 μL) was added with a suitable standard. For T = 0 min, ice-cold MeCN (250 μL) with suitable standard was added to the working solution (2 μM) and hepatocyte suspension (25 μL) added. The plates for each time point were shaken, sonicated for 5 mins and kept at 4°C until the final plate was processed. The plates were centrifuged at 4,000 rpm for 20 min, supernatant (110 μL) was mixed with water (110 μL) and the samples analysed using LC-MS/MS.

Mouse pharmacokinetics = assay type: in vivo; conditions: for AUC(0-inf) / Vd / bioavailability / half-life / concentration at 24 h: male, Swiss albino, plasma; for Vd: read-out: Vss; for bioavailability: 2.5 mg/kg oral, calculated values > 100% shown as 100; for bioavailability / Plasma conc @ 24 h after oral dose: mixture of 5 compounds; for half-life: iv; for scaled plasma level, fold above the calculated whole blood IC50: 24 h; for concentration at 24 h: oral
Protocol: Routine pharmacokinetics was carried out as previously described [24] with the following modifications: Swiss albino male mice of average weight 30 g with three animals per experiment. The final vehicle was 10% DMSO, 90% 50 mM Na2HPO4 with 0.5% Tween-80. Compounds were dosed singly (at a variety of doses as noted in the text) or more commonly in mixtures of 5 at 1 mg/kg per compound iv into the lateral tail vein or 2.5 mg/kg per compound by oral gavage. ~30 μl blood samples were taken by venepuncture, into heparinized capillary tubes and subsequently transferred into 0.5 ml micro-centrifuge tubes. Collection time points were 5 min (iv only), 15 min, 30 min, 1 h, 2 h, 4 h, 8 h & 24 h. All blood samples were processed for plasma by centrifugation at 4,000 rpm for 10 min at 4°C within half an hour of collection. Plasma samples were stored at -20°C until bioanalysis.
Prior to LC-MS analysis, all samples were extracted using protein precipitation using acetonitrile as the extraction solvent. For each batch of samples, a calibration line spanning an appropriate concentration range was created by spiking the compound of interest into blank matrix. The calibration line included 10 evenly spaced points. […] Where necessary, additional dilution QCs were included to validate the dilution process. Within each batch at least 3 study samples were assayed pre and post dilution to assess whether there was any impact from the presence of dosing vehicle in the samples. A linear regression was performed on peak area response ratios (analyte:IS) and the results used to back-calculate analyte concentrations. A batch of samples were considered acceptable if 75% of the calibration samples and 66% of the standard QC samples were within 20% of nominal. The linear range of the assay was defined by the calibration line ±20% i.e. the maximum reportable concentration was 120% of the highest concentration calibration sample that passed acceptance criteria. A metric plot of the IS response was reviewed to ensure the integrity of the study sample data.

[2] = Human dose prediction with the PK Tool; conditions: for human single oral dose prediction: PK Tool, predicted plasma conc at 24 h 7 fold above calculated adult worm blood potency
Description: • We assume that the plasma concentration achieved in mouse sufficient to kill worms is the same as the plasma concentration we need to achieve in humans to see the same effect. A component element is an assumption that the mechanism of S. mansoni worm reduction in mouse and human are the same. • We assume that allometric scaling can be used to estimate human clearance based on mouse clearance. One factor that would make this assumption unsafe is if the clearance mechanisms and rates for our series in mouse and human were different. Fortunately, in vivo clearance correlates well with metabolic stability calculated from in vitro mouse hepatocyte measurements (Fig 7A). In vitro stability estimates in mouse and human hepatocytes are also fairly well correlated (Fig 7B).
Estimates of dose prediction in human were made using the PK Tool. A simple estimate of an effective human dose for LSHTM-3520 can be made by making the assumption that a plasma concentration of 2,000 ng/mL 24 h after oral administration (the same as that achieved in Fig 6B) would give sufficient clinical efficacy. […] To design compounds with a lower predicted human dose we pursued two strategies, one to improve potency by optimisation of the core and substituents, the other to decrease clearance through blocking positions we thought likely to be vulnerable to metabolic enzymes and/or conformational restriction.
Assuming linear kinetics the plasma levels scaled from the low-dose oral PK experiment (2.5 mg/kg) for LSHTM-3520 (8 ng/mL) after 24 h would be 160 ng/mL from […] and 640 ng/mL at […].

[3] = Plasma protein binding in mouse plasma at 10 uM, equilibrium dialysis; assay type: in vitro ADME; conditions: for recovery at 6 h, 10 µM: mouse, mouse plasma, pH 7.4
Protocol: Each experiment was performed in duplicate for the compound being tested. A working solution of compound was prepared from 10 μL of 10 mM solution in DMSO + 190 μL 40:60 MeCN:Water. A Total solution was prepared from 12 μL of working solution + 588 μL plasma (compound conc: 10 μM, DMSO: 0.1%, ACN:0.76%). In an equilibrium dialysis chamber, Total solution (200 μL) was added to the plasma chamber and PBS pH 7.4 (350 μL) was added to the buffer chamber. The chamber was then incubated at 37°C for 6 h with constant shaking at 400 rpm (Thermomixer comfort, Eppendorf). Aliquots were removed from both plasma and buffer chambers and the following test samples prepared: Blank: blank Plasma (20 μL) + blank buffer (60 μL), Buffer: blank plasma (20 μL) + test buffer (60 μL), Plasma: test plasma (20 μL) + blank buffer (60 μL), Total: total sample (20 μL) + blank buffer (60 μL). Ice-cold acetonitrile (160 μL), containing a suitable standard was added to all samples, they were shaken vigorously and centrifuged at 4,000 rpm for 20 min at 15°C. Supernatant (110 μL) from each sample was diluted with water (110 μL) and the sample analysed by LC-MS/MS.
% Free = 100 × (AREA in buffer × dilution factor)/(AREA in Plasma × dilution factor)
% Recovery = 100 ×[(Avg AREA in buffer × dilution factor) + (Avg AREA in Plasma × dilution factor)] / (Avg AREA in Total × dilution factor)

Kinetic solubility = assay type: physicochemical
Description: Table 4 in vitro, physicochemical and in vivo properties of compounds pictured in Fig 10. | column: Measured physicochemical properties / Kinetic solubility, pH 7.4 (uM); Measured physicochemical properties / Kinetic solubility, FaSSIF (uM); Measured physicochemical properties / Kinetic solubility, FeSSIF (uM)

[4] = 0.5 mg/kg iv, in a mixture of 5 compounds
[5] = 0.5 mg/kg, 0.5 mg/kg iv, in a mixture of 5 compounds, sampled over 24 h
[6] = FaSSIF, pH 6.5, read-out: Kinetic solubility, FaSSIF
[7] = FeSSIF, pH 5, read-out: Kinetic solubility, FeSSIF
[8] = pH 7.4, read-out: Kinetic solubility, pH 7.4
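For Clobs in this document: three mice per experiment, dosed in 10% DMSO with 50 mM Na2HPO4 buffer plus Tween-80, plasma levels quantified by LC-MS against a calibration line prepared in blank matrix.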
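For F in this document: three mice per experiment, dosed in 10% DMSO with 50 mM Na2HPO4 buffer plus Tween-80, plasma levels quantified by LC-MS against a calibration line prepared in blank matrix.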
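For Vss in this document: three mice per experiment, dosed in 10% DMSO with 50 mM Na2HPO4 buffer plus Tween-80, plasma levels quantified by LC-MS against a calibration line prepared in blank matrix.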
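For half life in this document: three mice per experiment, dosed in 10% DMSO with 50 mM Na2HPO4 buffer plus Tween-80, plasma levels quantified by LC-MS against a calibration line prepared in blank matrix.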

remaining at 1.5 h, 1 µM [1] [%]	Clobs (Mouse pharmacokinetics; [4]) [mL/min/kg]	AUC(0-inf) (Mouse pharmacokinetics; [4]) [ng·h/mL]	Vd (Mouse pharmacokinetics; [4]) [L/kg]	bioavailability (Mouse pharmacokinetics) [%]	half-life (Mouse pharmacokinetics; [5]) [h]	human single oral dose prediction [2] [mg/kg]	Mouse plasma protein %binding [3] [%]	recovery at 6 h, 10 µM [3] [%]	solubility kinetic at 24 h (Kinetic solubility; [6]) [µM]	solubility kinetic at 24 h (Kinetic solubility; [7]) [µM]	solubility kinetic at 24 h (Kinetic solubility; [8]) [µM]	remaining at 0.5 h, 1 µM [1] [%]	SMILES	Cytotox TC50 (HepG2 cells)	further results
75	15.7	500	3.9	100	6	1	99.997	76.1	33.9 (≈ 14.6 µg/mL)	43.8 (≈ 18.8 µg/mL)	0.885 (≈ 0.38 µg/mL)		CC(C)c1cc(-c2cn3c(-c4ccc5[nH]ncc5c4F)c(C4CC4)nc3cn2)ccc1F [LSHTM-3686]	15,800 nM	half life (Mouse pharmacokinetics; 0.5 mg/kg iv, in a mixture of 5 compounds, sampled over 24 h, 0.5 mg/kg): 6.2 h
94	3.5	2400	6.4	100	23.4	3.5	100	96.9	199 (≈ 106 µg/mL)	200 (≈ 107 µg/mL)	0.264 (≈ 0.141 µg/mL)		Fc1ccc(-c2cn3c(-c4ccc5[nH]ncc5c4F)c(C(F)(F)F)nc3cn2)cc1C(F)(F)C(F)(F)F [LSHTM-3645]	11,700 nM	
90	2.17	5500	8.7	83		20	99.9915	92.1	196 (≈ 94.7 µg/mL)	197 (≈ 95.2 µg/mL)	0.854 (≈ 0.413 µg/mL)		Fc1ccc(-c2cn3c(-c4ccc5[nH]ncc5c4F)c(C(F)(F)F)nc3cn2)cc1C(F)(F)F [LSHTM-3642, 3-(4-fluoro-1H-indazol-5-yl)-6-(4-fluoro-3-(trifluoromethyl)phenyl)-2-(trifluoromethyl)imidazo[1,2-a]pyrazine]	16,600 nM	Plasma conc @ 24 h after oral dose (Mouse pharmacokinetics): 227 ng/mL

Second part, the molecule before the results:

SMILES	remaining at 1.5 h, 1 µM [1] [%]	Clobs (Mouse pharmacokinetics; [4]) [mL/min/kg]	AUC(0-inf) (Mouse pharmacokinetics; [4]) [ng·h/mL]	Vd (Mouse pharmacokinetics; [4]) [L/kg]	bioavailability (Mouse pharmacokinetics) [%]	half-life (Mouse pharmacokinetics; [5]) [h]	human single oral dose prediction [2] [mg/kg]	Mouse plasma protein %binding [3] [%]	recovery at 6 h, 10 µM [3] [%]	solubility kinetic at 24 h (Kinetic solubility; [6]) [µM]	solubility kinetic at 24 h (Kinetic solubility; [7]) [µM]	solubility kinetic at 24 h (Kinetic solubility; [8]) [µM]	remaining at 0.5 h, 1 µM [1] [%]	Cytotox TC50 (HepG2 cells)	further results
Fc1c(-c2c(C(F)(F)F)nc3cnc(-c4cccc(C(F)(F)C(F)(F)F)c4)cn23)ccc2[nH]ncc12 [LSHTM-3608]	88	1.5	6200	4	100	37.1	2.5	99.9195	80.8	200 (≈ 103 µg/mL)	196 (≈ 101 µg/mL)	0.704 (≈ 0.363 µg/mL)		10,900 nM	
CC(C)c1nc2cnc(-c3ccc(F)c(C(F)(F)F)c3)cn2c1-c1c(F)cc(O)cc1F [LSHTM-3520]	44		500	7.1	50	7	25	99.97	91.5			12.7 (≈ 5.73 µg/mL)	65	7,130 nM	half-life at 1 µM ([1]; pH 7.4, calculated from % remaining): 1.25 h; Clobs (Mouse pharmacokinetics; 0.5 mg/kg iv, in a mixture of 5 compounds, 0.5 mg/kg): 18.3 mL/min/kg and 18 mL/min/kg; scaled plasma level, fold above the calculated whole blood IC50 (Mouse pharmacokinetics; 50 mg/mL (so in the source)): 1.3 fold; scaled plasma level, fold above the calculated whole blood IC50 (Mouse pharmacokinetics; 200 mg/mL (so in the source)): 5.3 fold; Plasma conc @ 24 h after oral dose (Mouse pharmacokinetics; […]): 8.1 ng/mL; concentration at 24 h (Mouse pharmacokinetics; 50 mg/mL, scaled from […] to 50 mg/mL (so in the source), linear kinetics assumed, read-out: plasma level after 24 h scaled from the low-dose oral PK experiment): 160 ng/mL; concentration at 24 h (Mouse pharmacokinetics; 200 mg/mL, scaled from […] to 200 mg/mL (so in the source), linear kinetics assumed, read-out: plasma level after 24 h scaled from the low-dose oral PK experiment): 640 ng/mL; predicted single human oral dose (simple estimate) ([2]; target 2,000 ng/mL at 24 h, allometric scaling from mouse, exponent 0.75): 48 mg/kg
CC(C)c1nc2cnc(-c3ccc(F)c(C(F)(F)F)c3)cn2c1-c1ccc2[nH]ncc2c1F [LSHTM-3604]	80	4.33	1900	3.4	60	10.5	6	99.9858	94.5			0.834 (≈ 0.381 µg/mL)	89	12,000 nM	scaled plasma level, fold above the calculated whole blood IC50 (Mouse pharmacokinetics; efficacy dose (dose not given)): 9.4 fold; concentration at 24 h (Mouse pharmacokinetics; plasma level after 24 h scaled from […] dose, scaled to the efficacy dose (dose not given), read-out: plasma level after 24 h scaled from 2.5 mg/kg dose): 1430 ng/mL; solubility kinetic (Kinetic solubility; FaSSIF, read-out: Kinetic solubility, FaSSIF): 200 µM (≈ 91.5 µg/mL); solubility kinetic (Kinetic solubility; FeSSIF, read-out: Kinetic solubility, FeSSIF): 200 µM (≈ 91.5 µg/mL)
